The target in the experiment is T1, α1 homomeric glycine receptors (Rattus norvegicus, UniProt P07727).
T1 construct: expressed in transfected cells; host or cells: HEK 293 (transient transfection by electroporation, cDNA in pCIS2 vector)
T1 sequence (P07727 29-457): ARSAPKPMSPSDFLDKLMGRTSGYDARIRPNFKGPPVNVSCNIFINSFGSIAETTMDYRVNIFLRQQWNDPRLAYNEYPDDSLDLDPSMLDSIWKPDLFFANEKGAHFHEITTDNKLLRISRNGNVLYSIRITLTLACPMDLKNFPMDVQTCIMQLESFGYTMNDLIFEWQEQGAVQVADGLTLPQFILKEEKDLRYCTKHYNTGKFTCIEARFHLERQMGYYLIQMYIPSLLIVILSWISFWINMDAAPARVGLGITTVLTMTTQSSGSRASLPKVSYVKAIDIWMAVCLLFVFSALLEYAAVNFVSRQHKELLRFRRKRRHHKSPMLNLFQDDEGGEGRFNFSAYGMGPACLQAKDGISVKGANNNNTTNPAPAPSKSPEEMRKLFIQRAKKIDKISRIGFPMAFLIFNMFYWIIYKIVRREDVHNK
Put plainly: Whole-cell patch-clamp, Cl- current activated via α1 homomeric glycine receptors in transfected HEK 293 cells. The experiment is classed as cell-based. The method, then:
Cells were cultured in Dulbecco's modified Eagle's medium (DMEM, Biochrom, Berlin, Germany), supplemented with 10% fetal calf serum (FCS, Biochrom, Berlin, Germany), 100 U ml^−1 penicillin and 100 μg ml^−1 streptomycin at 37° C. in a 5% CO2/air incubator. […] For co-transfection of rat α1 glycine receptor subunits, the corresponding cDNA, each subcloned in the pCIS2 expression vector (Invitrogen, San Diego, USA), was added to the suspension. To visualize transfected cells, they were co-transfected with cDNA of green fluorescent protein (GFP 10 μg ml^−1). For transfection, we used an electroporation device by EquiBio (Kent, UK).
The compounds according to the present invention under investigation were prepared as 1 M stock solution in ethanol, light-protected and stored in glass vessels at −20° C. Concentrations were calculated from the amount injected into the glass vials. Drug-containing vials were vigorously vortexed for 60 min. Glycine and picrotoxin were dissolved directly in bath solution.
Patch electrodes contained [mM] KCl 140, MgCl2 2, EGTA 11, HEPES 10, glucose 10; the bath solution contained [mM]
A tight electrical seal of several GΩ formed between the cell membrane and a patch-clamp electrode allows inward currents due to agonist-induced channel activation to resolve in the pA range. Electrical resistance of the pipettes was around 5 MΩ, corresponding to a total access resistance in the whole-cell configuration of about 10 MΩ. The compounds according to the present invention under investigation were applied to the cells via a smooth liquid filament achieved with a single outflow (glass tubing 0.15 mm inner diameter) connected to a piezo crystal. The cells were placed at the interface between this filament and the continuously flowing background solution. When a voltage pulse was applied to the piezo, the tube was moved up and down onto or away from the cell under investigation. Correct positioning of the cell in respect to the liquid filament was ensured applying a saturating (1000 μM) glycine pulse before and after each test experiment. Care was taken to ensure that the amplitude and the shape of the glycine-activated current had stabilized before proceeding with the experiment. Test solution and glycine (1000 μM) were applied via the same glass-polytetrafluoroethylen perfusion system, but from separate reservoirs. The contents of these reservoirs were mixed at a junction immediately before entering the superfusion chamber.
The compounds under test were applied alone in order to determine their direct agonistic effects. A new cell was used for each compound and each protocol, at least three different experiments were performed for each setting. The amount of the diluent ethanol corresponding to the highest compound concentration used was 34 000 μM.
For data acquisition and further analysis the inventors used the Axopatch 200B amplifier in combination with pClamp6 software (Axon Instruments, Union City, Calif., USA). Currents were filtered at 2 kHz. Fitting procedures were performed using a non-linear least-squares Marquardt-Levenberg algorithm. Details are provided in the appropriate figure legends or in the results section.
Activated currents were normalized to their own maximum response. The dose-response-curves were fitted according to (Inorm=[1+(EC50/[C])^nH]^−1), where Inorm is the current induced directly by the respective concentration [C] of the compound, normalized to the maximum inward current.
Background: The patch-clamp technique gives a direct electrical read-out from membranes.

Setting [1] is: EC50 (nM), α1 homomer, initial tests, Hill fit to normalised response, rat α1 receptors in HEK 293.

One may read the EC50 as the concentration that produces a half-maximal response. For `CC(C)c1cc(-c2ccc(Cl)cc2)cc(C(C)C)c1O` [4-(p-Cl—Ph)-propofol, 4-(para-Chlorophenyl)-propofol], the EC50 under setting [1] turned out to be 0.2 ± 0.3 nM. Moreover, the “nH (Hill coefficient), α1 homomer” value (initial tests, Hill fit to normalised response) is recorded as 1.1 ± 0.5.
Consider `CC(C)c1cc(-c2ccc(Cl)c(F)c2)cc(C(C)C)c1O` [p-(3-F,4-Cl—Ph)-propofol, Para-(3-Fluoro,4-chlorophenyl)-propofol], for which the half-maximal effective concentration (EC50) runs as follows: under setting [1], 0.8 nM; (EC50, further series of tests (later tests)) 0.07 nM.

These data come from patent publication US8507724B2 (priority 2008, dated 2013).
